System: MDA-MB-231 complex spheroid viability
Assay: Anticancer human tumor MDA-MB-231/ATCC cell line growth inhibition;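 further: drug exposure lasted 7 days starting on day 3 of spheroid growth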
Conditions: for IC50: curve of first compound; for viability, T/C: stronger effect = lower value
How it was run: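 Multicellular complex spheroids of tumor cells with human endothelial cells (HUVEC) and mesenchymal stem cells; the LSD1 inhibitor iadademstat was combined with standard-of-care or investigational agents. Top concentration at or near clinical Cmax, half-log dilutions; final DMSO ≤0.25%.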

[1] = second compound 0.1 µM, first compound 0.0316 µM
[2] = second compound 0.1 µM, first compound 0.1 µM
[3] = second compound 0.1 µM, first compound 0.316 µM
[4] = second compound 0.1 µM, first compound 1 µM
[5] = second compound 0.1 µM, first compound 3.16 µM
[6] = second compound 0.1 µM, first compound 10 µM
[7] = second compound 0.316 µM, first compound 0.0316 µM
[8] = second compound 0.316 µM, first compound 0.1 µM
[9] = second compound 0.316 µM, first compound 0.316 µM
[10] = second compound 0.316 µM, first compound 1 µM
[11] = second compound 0.316 µM, first compound 3.16 µM
[12] = second compound 0.316 µM, first compound 10 µM
[13] = second compound 1 µM, first compound 0.0316 µM
[14] = second compound 1 µM, first compound 0.1 µM
[15] = second compound 1 µM, first compound 0.316 µM
[16] = second compound 1 µM, first compound 1 µM
[17] = second compound 1 µM, first compound 3.16 µM
[18] = second compound 1 µM, first compound 10 µM
[19] = second compound 3.16 µM, first compound 0.0316 µM
[20] = second compound 3.16 µM, first compound 0.1 µM
[21] = second compound 3.16 µM, first compound 0.316 µM
[22] = second compound 3.16 µM, first compound 1 µM
[23] = second compound 3.16 µM, first compound 3.16 µM
[24] = second compound 3.16 µM, first compound 10 µM
[25] = second compound 10 µM, first compound 0.0316 µM
[26] = second compound 10 µM, first compound 0.1 µM
[27] = second compound 10 µM, first compound 0.316 µM
[28] = second compound 10 µM, first compound 1 µM
[29] = second compound 10 µM, first compound 3.16 µM
[30] = second compound 10 µM, first compound 10 µM

| Compound | IC50 (second compound 0.1 µM) [nM] | IC50 (second compound 0.316 µM) [nM] | IC50 (second compound 1 µM) [nM] | IC50 (second compound 3.16 µM) [nM] | IC50 (second compound 10 µM) [nM] | viability, T/C [1] [%] | viability, T/C [2] [%] | viability, T/C [3] [%] | viability, T/C [4] [%] | viability, T/C [7] [%] | viability, T/C [8] [%] | viability, T/C [9] [%] | viability, T/C [10] [%] | viability, T/C [13] [%] | viability, T/C [14] [%] | viability, T/C [15] [%] | viability, T/C [16] [%] | viability, T/C [19] [%] | viability, T/C [20] [%] | viability, T/C [21] [%] | further results |
| --- | --- | --- | --- | --- | --- | --- | --- | --- | --- | --- | --- | --- | --- | --- | --- | --- | --- | --- | --- | --- | --- |
| CC(C)c1c(-c2ccccc2)nc2c(C#N)c[nH]n2c1=O + NC1CCC(NC2CC2c2ccccc2)CC1 | > 10000 | > 10000 | > 10000 | > 10000 | > 10000 | 108 | 108 | 101 | 102 | 109 | 106 | 106 | 111 | 101 | 100 | 102 | 109 | 86.6 | 90.4 | 87.6 | viability, T/C [5]: 105%; viability, T/C [6]: 103%; viability, T/C [11]: 110%; viability, T/C [12]: 104%; viability, T/C [17]: 106%; viability, T/C [18]: 103%; viability, T/C [22]: 88.5%; viability, T/C [23]: 94.2%; viability, T/C [24]: 87.3%; viability, T/C [25]: 64.5%; viability, T/C [26]: 69.2%; viability, T/C [27]: 70.2%; viability, T/C [28]: 73.7%; viability, T/C [29]: 71.1%; viability, T/C [30]: 66.5% |
| CC1COCCN1c1cc(-c2ccnn2C)c2ccnc(-c3ccn[nH]3)c2n1 (stereo not given) + NC1CCC(NC2CC2c2ccccc2)CC1 | 31.1 | 34.3 | 25.7 | 16.5 | 10.7 | 50.4 | 33.3 | 28.4 | 28.8 | 50.7 | 37.4 | 29.3 | 28.9 | 45.8 | 34.5 | 27.4 | 30.7 | 40.2 | 33 | 29.3 | viability, T/C (second compound 0.1 µM, first compound 0.00316 µM): 102%; viability, T/C (second compound 0.1 µM, first compound 0.01 µM): 77.8%; viability, T/C (second compound 0.316 µM, first compound 0.00316 µM): 93.7%; viability, T/C (second compound 0.316 µM, first compound 0.01 µM): 73.8%; viability, T/C (second compound 1 µM, first compound 0.00316 µM): 90%; viability, T/C (second compound 1 µM, first compound 0.01 µM): 69.4%; viability, T/C (second compound 3.16 µM, first compound 0.00316 µM): 72.8%; viability, T/C (second compound 3.16 µM, first compound 0.01 µM): 57.4%; viability, T/C [22]: 30.7%; viability, T/C (second compound 10 µM, first compound 0.00316 µM): 56.9%; viability, T/C (second compound 10 µM, first compound 0.01 µM): 51%; viability, T/C [25]: 32.8%; viability, T/C [26]: 30%; viability, T/C [27]: 28%; viability, T/C [28]: 28.9% |
| CC1COCCN1c1cc(C2(S(C)(=N)=O)CC2)nc(-c2ccnc3[nH]ccc23)n1 (stereo not given) + NC1CCC(NC2CC2c2ccccc2)CC1 | 1180 | 1460 | 1530 | 1180 | 1010 | 103 | 99.2 | 82.5 | 51.1 | 111 | 109 | 81.6 | 59.2 | 109 | 100 | 79.5 | 56 | 95 | 87 | 69.7 | viability, T/C [5]: 38.1%; viability, T/C [6]: 29.4%; viability, T/C [11]: 34.9%; viability, T/C [12]: 29.3%; viability, T/C [17]: 40%; viability, T/C [18]: 30.3%; viability, T/C [22]: 53%; viability, T/C [23]: 37.9%; viability, T/C [24]: 33.3%; viability, T/C [25]: 72.4%; viability, T/C [26]: 68.2%; viability, T/C [27]: 59.5%; viability, T/C [28]: 48.1%; viability, T/C [29]: 42.4%; viability, T/C [30]: 32.3% |
